Source: PubChem BioAssay AID330 (DTP/NCI, 2004)
Values joined by “and” are separate entries in the source; they are usually repeats but may differ in a detail not shown here. Identical values can stand only once. Inconclusive results and toxic doses are left out. How the source made its calls: active means survival T/C of 150% or more; inactive means T/C below 125% in these data.

System: P388 leukemia ip, CD2F1 mice, survival T/C
Assay: NCI In Vivo Anticancer Drug Screen. Data for tumor model P388 Leukemia (intraperitoneal) in CD2F1 (CDF1) mice
Settings: endpoint: median survival time, higher = longer survival
Summary of the method: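 Mice carrying the transplanted tumor received test compound or vehicle. Survival was recorded in each group, and the value is the treated-group measurement divided by that of the vehicle-treated control group.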

[1] = dose: 50.0 mg/kg/injection, schedule: Q01DX009 (ip), vehicle: Klucel (hydroxypropylcellulose) (HPC)
[2] = dose: 100.0 mg/kg/injection, schedule: Q01DX009 (ip), vehicle: Klucel (hydroxypropylcellulose) (HPC)
[3] = dose: 200.0 mg/kg/injection, schedule: Q01DX009 (ip), vehicle: Klucel (hydroxypropylcellulose) (HPC)
[4] = dose: 60.0 mg/kg/injection, schedule: Q01DX005 (ip), vehicle: Klucel (hydroxypropylcellulose) (HPC)
[5] = dose: 120.0 mg/kg/injection, schedule: Q01DX005 (ip), vehicle: Klucel (hydroxypropylcellulose) (HPC)
[6] = dose: 240.0 mg/kg/injection, schedule: Q01DX005 (ip), vehicle: Klucel (hydroxypropylcellulose) (HPC)
[7] = dose: 50.0 mg/kg/injection, schedule: Q04DX003 (ip), vehicle: saline with Tween-80
[8] = dose: 100.0 mg/kg/injection, schedule: Q04DX003 (ip), vehicle: saline with Tween-80
[9] = dose: 200.0 mg/kg/injection, schedule: Q04DX003 (ip), vehicle: saline with Tween-80
[10] = dose: 100.0 mg/kg/injection, schedule: Q04DX003 (ip), vehicle: Klucel (hydroxypropylcellulose) (HPC)
[11] = dose: 200.0 mg/kg/injection, schedule: Q04DX003 (ip), vehicle: Klucel (hydroxypropylcellulose) (HPC)
[12] = dose: 400.0 mg/kg/injection, schedule: Q04DX003 (ip), vehicle: Klucel (hydroxypropylcellulose) (HPC)
[13] = dose: 50.0 mg/kg/injection, schedule: Q01DX009 (ip), vehicle: saline with Tween-80
[14] = dose: 100.0 mg/kg/injection, schedule: Q01DX009 (ip), vehicle: saline with Tween-80
[15] = dose: 200.0 mg/kg/injection, schedule: Q01DX009 (ip), vehicle: saline with Tween-80
[16] = dose: 60.0 mg/kg/injection, schedule: Q01DX005 (ip), vehicle: saline with Tween-80
[17] = dose: 120.0 mg/kg/injection, schedule: Q01DX005 (ip), vehicle: saline with Tween-80
[18] = dose: 400.0 mg/kg/injection, schedule: Q04DX003 (ip), vehicle: saline with Tween-80
[19] = dose: 50.0 mg/kg/injection, schedule: Q01DX005 (ip), vehicle: saline
[20] = dose: 100.0 mg/kg/injection, schedule: Q01DX005 (ip), vehicle: saline
[21] = dose: 200.0 mg/kg/injection, schedule: Q01DX005 (ip), vehicle: saline

Measured: T/C

Cc1cc(N)nc(=O)n1COCCOCc1ccccc1
inactive: dose: 100.0 mg/kg/injection, schedule: Q04DX002 (ip), vehicle: Klucel (hydroxypropylcellulose) (HPC) 103 % of control | dose: 200.0 mg/kg/injection, schedule: Q04DX002 (ip), vehicle: Klucel (hydroxypropylcellulose) (HPC) 106 % of control | dose: 400.0 mg/kg/injection, schedule: Q04DX002 (ip), vehicle: Klucel (hydroxypropylcellulose) (HPC) 98 % of control

COc1ccc2c(c1)CCC1=C2CCP1(C)=S (centres undefined)
inactive: [1] 106 % of control | [2] 97 % of control | [3] 88 % of control

CN(C)C(=Nc1ccc(NC(=O)c2ccc(C(=O)Nc3ccc(N=C(Nc4ccccc4)N(C)C)cc3)cc2)cc1)Nc1ccccc1
inactive: dose: 6.25 mg/kg/injection, schedule: Q01DX005 (ip), vehicle: Klucel (hydroxypropylcellulose) (HPC) 101 % of control | dose: 12.5 mg/kg/injection, schedule: Q01DX005 (ip), vehicle: Klucel (hydroxypropylcellulose) (HPC) 101 % of control | dose: 25.0 mg/kg/injection, schedule: Q01DX005 (ip), vehicle: Klucel (hydroxypropylcellulose) (HPC) 100 % of control

CCOC(=O)/C(C#N)=C/NCC1CC1
inactive: [4] 102 % of control | [5] 98 % of control | [6] 98 % of control

CC(C)OC(=O)Nc1nc2ccc(C(=O)OC(C)C)cc2[nH]1
inactive: [7] 102 % of control | [8] 104 % of control and 116 % of control | [9] 112 % of control and 113 % of control

Cc1nc(N)[nH]c(=O)c1-c1ccc(Cl)cc1
inactive: [10] 106 % of control | [11] 105 % of control | [12] 99 % of control

CC1=C(C)C(=Nc2ccc(N(CCCl)CCCl)cc2)C=CC1=O
inactive: dose: 50.0 mg/kg/injection, schedule: Q01DX001 (ip), vehicle: Klucel (hydroxypropylcellulose) (HPC) 97 % of control | dose: 100.0 mg/kg/injection, schedule: Q01DX001 (ip), vehicle: Klucel (hydroxypropylcellulose) (HPC) 100 % of control | dose: 200.0 mg/kg/injection, schedule: Q01DX001 (ip), vehicle: Klucel (hydroxypropylcellulose) (HPC) 114 % of control

N#CC(C#N)=Cc1ccc2c(c1)CCC2
inactive: dose: 25.0 mg/kg/injection, schedule: Q01DX009 (ip), vehicle: saline with Tween-80 90 % of control | [13] 95 % of control | [14] 109 % of control

CC(C)C(Br)C(Br)c1ccccc1 (centres undefined)
inactive: [13] 100 % of control | [14] 104 % of control | [15] 104 % of control

CC(C)(C)c1ccc(C(=O)Nc2ccc(Cl)cc2Oc2ccccc2)cc1
inactive: [1] 93 % of control | [2] 97 % of control | [3] 86 % of control

CCOC(=O)Nn1c(C)c(C(N)=O)c(C(=O)OC)c1C
inactive: [16] 100 % of control | [17] 96 % of control | dose: 240.0 mg/kg/injection, schedule: Q01DX005 (ip), vehicle: saline with Tween-80 103 % of control

CC(C)(O)[C@@H]1Cc2cc3ccc(=O)oc3cc2O1
inactive: dose: 1.0 mg/kg/injection, schedule: Q01DX005 (ip), vehicle: Klucel (hydroxypropylcellulose) (HPC) 89 % of control | dose: 2.0 mg/kg/injection, schedule: Q01DX005 (ip), vehicle: Klucel (hydroxypropylcellulose) (HPC) 102 % of control | dose: 4.0 mg/kg/injection, schedule: Q01DX005 (ip), vehicle: Klucel (hydroxypropylcellulose) (HPC) 98 % of control | dose: 8.0 mg/kg/injection, schedule: Q01DX005 (ip), vehicle: Klucel (hydroxypropylcellulose) (HPC) 96 % of control | dose: 16.0 mg/kg/injection, schedule: Q01DX005 (ip), vehicle: Klucel (hydroxypropylcellulose) (HPC) 96 % of control

O=[n+]1c2ccccc2n([O-])c2cc(Cl)ccc21
active: [13] 150 % of control | [14] 154 % of control and 174 % of control
inactive: dose: 25.0 mg/kg/injection, schedule: Q04DX003 (ip), vehicle: saline with Tween-80 112 % of control | [7] 112 % of control | [8] 107 % of control | [9] 114 % of control | [18] 114 % of control

COc1cccc(CN2CCCNCC2)c1
inactive: dose: 6.25 mg/kg/injection, schedule: Q01DX009 (ip), vehicle: water 93 % of control | dose: 12.5 mg/kg/injection, schedule: Q01DX009 (ip), vehicle: water 93 % of control | dose: 25.0 mg/kg/injection, schedule: Q01DX009 (ip), vehicle: water 97 % of control | dose: 50.0 mg/kg/injection, schedule: Q01DX009 (ip), vehicle: water 101 % of control

O=C(Nc1ccc(C2=NCCCN2)cc1)c1ccc(NC(=O)c2ccc(C3=NCCCN3)cc2)cc1
active: dose: 5.0 mg/kg/injection, schedule: Q01DX009 (ip), vehicle: saline 200 % of control | dose: 10.0 mg/kg/injection, schedule: Q01DX009 (ip), vehicle: saline 250 % of control | dose: 12.5 mg/kg/injection, schedule: Q04DX003 (ip), vehicle: saline 160 % of control | dose: 20.0 mg/kg/injection, schedule: Q04DX003 (ip), vehicle: saline with Tween-80 186 % of control
inactive: dose: 375.0 micrograms/kg/injection, schedule: Q04DX003 (ip), vehicle: saline 109 % of control | dose: 750.0 micrograms/kg/injection, schedule: Q04DX003 (ip), vehicle: saline 100 % of control | dose: 1500.0 micrograms/kg/injection, schedule: Q04DX003 (ip), vehicle: saline 109 % of control

CCN(CC)CCNN
inactive: [19] 100 % of control | [20] 100 % of control | [21] 103 % of control

Cc1ccc(NC(=O)Oc2cc(C)c(C)cc2Cl)c([N+](=O)[O-])c1
inactive: [13] 107 % of control | [14] 104 % of control | [15] 112 % of control

CP1(=O)CCc2c1ccc1ccccc21 (centres undefined)
inactive: dose: 100.0 mg/kg/injection, schedule: Q04DX002 (ip), vehicle: saline 107 % of control | dose: 200.0 mg/kg/injection, schedule: Q04DX002 (ip), vehicle: saline 101 % of control

CCc1c(C(=O)OC)c(C(=O)OC)c(-c2ccccc2)n1CCn1c(CC)c(C(=O)OC)c(C(=O)OC)c1-c1ccccc1
inactive: [4] 96 % of control | [5] 91 % of control | [6] 93 % of control

COc1ccc(C(=O)Nc2c(Cl)cccc2Cl)cc1OC
inactive: [16] 94 % of control | [17] 88 % of control

ClC=P(c1ccccc1)(c1ccccc1)c1ccccc1
inactive: [7] 104 % of control | [8] 109 % of control | [9] 104 % of control

Cc1ccc(C(C)(C)O)cc1O
inactive: dose: 8.75 mg/kg/injection, schedule: Q01DX005 (ip), vehicle: Klucel + Tween-80 100 % of control | dose: 17.5 mg/kg/injection, schedule: Q01DX005 (ip), vehicle: Klucel + Tween-80 100 % of control | dose: 35.0 mg/kg/injection, schedule: Q01DX005 (ip), vehicle: Klucel + Tween-80 103 % of control | dose: 70.0 mg/kg/injection, schedule: Q01DX005 (ip), vehicle: Klucel + Tween-80 103 % of control

Cc1nc2cc[nH]n2c(=O)c1CCc1ccccc1
inactive: [16] 90 % of control | [17] 88 % of control

BrCCC1CO1 (centres undefined)
inactive: dose: 50.0 mg/kg/injection, schedule: Q01DX009 (ip), vehicle: saline 98 % of control | dose: 100.0 mg/kg/injection, schedule: Q01DX009 (ip), vehicle: saline 100 % of control | dose: 200.0 mg/kg/injection, schedule: Q01DX009 (ip), vehicle: saline 117 % of control

CCOC(=O)c1c(N)sc2c1CCCC2
inactive: [7] 101 % of control | dose: 100.0 mg/kg/injection, schedule: Q01DX001 (ip), vehicle: saline sonified 100 % of control | [8] 108 % of control | dose: 200.0 mg/kg/injection, schedule: Q01DX001 (ip), vehicle: saline sonified 100 % of control | [9] 105 % of control | dose: 400.0 mg/kg/injection, schedule: Q01DX001 (ip), vehicle: saline sonified 100 % of control | [18] 101 % of control

O=C(OCCn1c(=O)n(CCOC(=O)c2cccc([N+](=O)[O-])c2)c(=O)n(CCOC(=O)c2cccc([N+](=O)[O-])c2)c1=O)c1cccc([N+](=O)[O-])c1
inactive: [10] 93 % of control | [11] 86 % of control | [12] 87 % of control

CCc1c(O)sc2c(c1=O)C(=NCC(C)C)CC(C)(C)N2
inactive: [19] 86 % of control | [20] 94 % of control | [21] 97 % of control
